Assay results from patent EP0120613A1, “Penem derivatives and precursors” (BEECHAM GROUP PLC, priority 1983, dated 1984).
One block for each compound: values may come before it.

Tests used:
[1] = test system: range of resistant strains; experiment: MIC of Example 1b alone, microtitre technique (Table 3); assay type: cell-based; conditions: Ex 1b alone; strains of Table 3
Staphylococci Oxford = experiment: Antibacterial activity of alkylidene-penems (MIC); assay type: cell-based; conditions: compound alone
Staphylococci Russell = experiment: Antibacterial activity of alkylidene-penems (MIC); assay type: cell-based; conditions: compound alone
S Aureus Russell = experiment: Effect of alkylidene-penems on the MIC of amoxycillin; assay type: cell-based; conditions: Amoxycillin alone
Kleb aerogenes = experiment: as above; assay type: cell-based, Klebsiella aerogenes; conditions: Amoxycillin alone
E. coli JT39 (RTEM) = experiment: as above; assay type: cell-based; conditions: Amoxycillin alone
E.aerogenes 53 = experiment: MIC of broad spectrum cephalosporins with Example 1b, microtitre technique; assay type: cell-based
E.cloacae P383 = experiment: as above; assay type: cell-based
E.cloacae 159/167 = experiment: as above; assay type: cell-based
Ps.aeruginosa Charlier = experiment: as above; assay type: cell-based
C.freundii T1739 = experiment: as above; assay type: cell-based
C.freundii T562 = experiment: as above; assay type: cell-based
E.aerogenes P99 = experiment: as above; assay type: cell-based
M.morganii 978 = experiment: as above; assay type: cell-based
C.freundii 423 = experiment: as above; assay type: cell-based
S.marcescens HCN 3956 = experiment: as above; assay type: cell-based
E.cloacae V692/80 = experiment: as above; assay type: cell-based
E.cloacae 4508 = experiment: as above; assay type: cell-based
E.cloacae Dokt 5 = experiment: as above; assay type: cell-based
Ps.aeruginosa Badia IR = experiment: as above; assay type: cell-based
S.marcescens V697 = experiment: as above; assay type: cell-based
E.aerogenes 55 = experiment: as above; assay type: cell-based
E.coli JT410 = experiment: Effect of alkylidene-penems on the MIC of cephaloridine; assay type: cell-based; conditions: Cephaloridine alone

Compound: O=C(O)C1=CSC2/C(=C\c3ccco3)C(=O)N12 (racemic) [Example 1b, (5 RS) Sodium (Z) -6- Furfurylidenepenem - 3 - carboxylate]
- MIC [1]: > 80 µg/mL
- MIC (Staphylococci Oxford): 16.0 µg/mL
- MIC (Staphylococci Russell): 16.0 µg/mL

Compound: CCSC1=C(C(=O)O)N2C(=O)/C(=C/c3ccco3)C2S1 (racemic) [Example 2b, (5RS) Sodium 2-Eth^ylthio - (Z)-6-furfurylidenepenem-3-carboxylate]
- MIC (Staphylococci Oxford): 5.0 µg/mL
- MIC (Staphylococci Russell): 10.0 µg/mL

Compound: CCSC1=C(C(=O)O)N2C(=O)/C(=C/c3ccc(COC(C)=O)o3)C2S1 (racemic) [Example 5b, (SRS) Sodium (z)-6-(5-Acetoxymethylfurfurylidene)-2-ethylthiopenem-3-carboxylate]
- MIC (Staphylococci Oxford): 3.1 µg/mL
- MIC (Staphylococci Russell): 12.5 µg/mL

Compound: O=C(O)C1=CSC2/C(=C\c3ccsc3)C(=O)N12 (racemic) [Example 8b, (5RS) Sodium (Z)-6-(3-thienyl)methylenepenem-3-carboxylate]
- MIC (Staphylococci Oxford): 50 µg/mL
- MIC (Staphylococci Russell): 12.5 µg/mL

Compound: O=C(O)C1=CSC2/C(=C/c3ccoc3)C(=O)N12 (racemic) [Example 12b, (5RS) Sodium (E)-6-(3-Furylmethylene)penem-3-carboxylate]
- MIC (Staphylococci Oxford): 100 µg/mL
- MIC (Staphylococci Russell): 50 µg/mL

Compound: CC1(C)S[C@@H]2[C@H](NC(=O)[C@H](N)c3ccc(O)cc3)C(=O)N2[C@H]1C(=O)O [Amoxycillin]
- MIC (µg/ml) of antibiotic (S Aureus Russell): 500 µg/mL
- MIC (µg/ml) of antibiotic (Kleb aerogenes): 500 µg/mL
- MIC (µg/ml) of antibiotic (E. coli JT39 (RTEM)): 2000 µg/mL

Compound: CC(C)(O/N=C(\C(=O)N[C@@H]1C(=O)N2C(C(=O)[O-])=C(C[n+]3ccccc3)CS[C@H]12)c1csc(N)n1)C(=O)O [Ceftazidine]
- MIC Cephalosporin (E.aerogenes 53; Ceftazidine alone): >80 µg/mL
- MIC Cephalosporin (E.cloacae P383; Ceftazidine alone): >80 µg/mL
- MIC Cephalosporin (E.cloacae 159/167; Ceftazidine alone): >80 µg/mL
- MIC Cephalosporin (Ps.aeruginosa Charlier; Ceftazidine alone): 80 µg/mL
- MIC Cephalosporin (C.freundii T1739; Ceftazidine alone): 80 µg/mL
- MIC Cephalosporin (C.freundii T562; Ceftazidine alone): 80 µg/mL
- MIC Cephalosporin (E.aerogenes P99; Ceftazidine alone): 80 µg/mL
- MIC Cephalosporin (M.morganii 978; Ceftazidine alone): 2.5 µg/mL
- MIC Cephalosporin (C.freundii 423; Ceftazidine alone): 80 µg/mL
- MIC Cephalosporin (S.marcescens HCN 3956; Ceftazidine alone): 5 µg/mL
- MIC Cephalosporin (E.cloacae V692/80; Ceftazidine alone): >80 µg/mL
- MIC Cephalosporin (E.cloacae 4508; Ceftazidine alone): >80 µg/mL
- MIC Cephalosporin (E.cloacae Dokt 5; Ceftazidine alone): >80 µg/mL
- MIC Cephalosporin (Ps.aeruginosa Badia IR; Ceftazidine alone): >80 µg/mL
- MIC Cephalosporin (S.marcescens V697; Ceftazidine alone): 80 µg/mL
- MIC Cephalosporin (E.aerogenes 55; Ceftazidine alone): 80 µg/mL

Compound: O=C(Cc1cccs1)N[C@@H]1C(=O)N2C(C(=O)[O-])=C(C[n+]3ccccc3)CS[C@H]12 [Cephaloridine]
- MIC (µg/ml) of antibiotic (E.coli JT410): 62 to 125 µg/mL

Continued, values first:

- MIC (Staphylococci Oxford): 12.5 µg/mL
- MIC (Staphylococci Russell): 12.5 µg/mL
Compound: O=C(O)C1=C(SCCO)SC2/C(=C\c3ccco3)C(=O)N12 (racemic) [Example 3b, (5RS) Sodium (Z)-6-Furfurylidene-2-(2-hydroxyethylthio) penem-3-carboxylate]

- MIC (Staphylococci Oxford): 100 µg/mL
- MIC (Staphylococci Russell): 50 µg/mL
Compound: O=C(O)C1=CSC2/C(=C\c3cccs3)C(=O)N12 (racemic) [Example 7b, (5RS) Sodium (Z)-6-(2-thienyl)methylenepenem-3-carboxylate]

- MIC (Staphylococci Oxford): 62 µg/mL
- MIC (Staphylococci Russell): 125 µg/mL
Compound: O=C(O)C1=CSC2/C(=C/c3ccco3)C(=O)N12 (racemic) [Example 9b, (5RS) Sodium (E)-6-Furfurylidenepenem-3-carboxylate]

- MIC (Staphylococci Oxford): 50 µg/mL
- MIC (Staphylococci Russell): 50 µg/mL
Compound: O=C(O)C1=CSC2/C(=C\c3ccc(Br)o3)C(=O)N12 (racemic) [Example 11b, (5RS) Sodium (Z)-6-(5-Bromofurfurylidene)penem-3-carboxylate]

- MIC Cephalosporin (E.aerogenes 53; Cefotaxime alone): >80 µg/mL
- MIC Cephalosporin (E.cloacae P383; Cefotaxime alone): >80 µg/mL
- MIC Cephalosporin (E.cloacae 159/167; Cefotaxime alone): >80 µg/mL
- MIC Cephalosporin (Ps.aeruginosa Charlier; Cefotaxime alone): >80 µg/mL
- MIC Cephalosporin (C.freundii T1739; Cefotaxime alone): 40 µg/mL
- MIC Cephalosporin (C.freundii T562; Cefotaxime alone): 40 µg/mL
- MIC Cephalosporin (E.aerogenes P99; Cefotaxime alone): >80 µg/mL
- MIC Cephalosporin (M.morganii 978; Cefotaxime alone): >80 µg/mL
- MIC Cephalosporin (C.freundii 423; Cefotaxime alone): 40 µg/mL
- MIC Cephalosporin (S.marcescens HCN 3956; Cefotaxime alone): 80 µg/mL
- MIC Cephalosporin (E.cloacae V692/80; Cefotaxime alone): >80 µg/mL
- MIC Cephalosporin (E.cloacae 4508; Cefotaxime alone): >80 µg/mL
- MIC Cephalosporin (E.cloacae Dokt 5; Cefotaxime alone): >80 µg/mL
- MIC Cephalosporin (Ps.aeruginosa Badia IR; Cefotaxime alone): >80 µg/mL
- MIC Cephalosporin (S.marcescens V697; Cefotaxime alone): >80 µg/mL
- MIC Cephalosporin (E.aerogenes 55; Cefotaxime alone): 80 µg/mL
Compound: CO/N=C(\C(=O)N[C@@H]1C(=O)N2C(C(=O)O)=C(COC(C)=O)CS[C@H]12)c1csc(N)n1 [Cefotaxime]
